Experimental data: PubChem BioAssay (NCI)
Where “and” joins values, the source holds several entries; their conditions need not be identical. Identical values can stand only once.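 1) Cells in 96-well plates. 2) Compound, 48 h, 5 concentrations. 3) Linear interpolation between surrounding doses. 4) Unreached endpoint = highest concentration. GI50: concentration for 50% inhibition of growth. Definition used: TGI = concentration required for complete inhibition of growth.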

Legend:
Test in all cases: NCI-60 cell line screen, 48 h
OVCAR-4 ovarian = tested on: OVCAR-4 ovarian
SNB-75 CNS = tested on: SNB-75 CNS
HT29 colon = tested on: HT29 colon
UO-31 renal = tested on: UO-31 renal
SK-MEL-28 melanoma = tested on: SK-MEL-28 melanoma
SNB-19 CNS = tested on: SNB-19 CNS
SW-620 colon = tested on: SW-620 colon
OVCAR-3 ovarian = tested on: OVCAR-3 ovarian
SK-MEL-2 melanoma = tested on: SK-MEL-2 melanoma
EKVX NSCLC = tested on: EKVX NSCLC

Row | SMILES | TGI (OVCAR-4 ovarian) [µM] | TGI (SNB-75 CNS) [µM] | TGI (HT29 colon) | TGI (UO-31 renal) | TGI (SK-MEL-28 melanoma) [µM] | TGI (SNB-19 CNS) [µM] | TGI (SW-620 colon) [µM] | TGI (OVCAR-3 ovarian) | TGI (SK-MEL-2 melanoma) [µM] | TGI (EKVX NSCLC) [µM] | GI50 (OVCAR-4 ovarian) | GI50 (HT29 colon) | GI50 (UO-31 renal) | GI50 (SK-MEL-28 melanoma) | GI50 (SNB-19 CNS) | GI50 (OVCAR-3 ovarian) | GI50 (EKVX NSCLC) | GI50 (SNB-75 CNS) [µM] | GI50 (SW-620 colon) [µM] | GI50 (SK-MEL-2 melanoma) [µM]
1 | COc1ccc(N2C(=O)C(=O)N(C)C2=O)c2ccccc12 | > 10 | > 10 | > 10 µM | > 10 µM | > 10 | > 10 | > 10 | > 10 µM | > 10 | > 10 | – | – | – | – | – | – | – | – | – | –
2 | CN(CC(=O)O)CC(=O)O | > 100 | > 100 | > 100 µM | > 100 µM | > 100 | > 100 | > 100 | > 100 µM | > 100 | > 100 | – | – | – | – | – | – | – | – | – | –
3 | CC[C@@]1(O)C(=O)OCc2c1cc1n(c2=O)Cc2cc3c(CN(C)C)c(O)ccc3nc2-1 | – | – | 8.1 µM and 20.2 µM and 6.7 µM | 0.273 µM and 1.89 µM and 0.607 µM | – | – | – | 1.37 µM and 7.71 µM and 2.12 µM | – | – | 0.319 µM and 0.812 µM and 0.571 µM | 0.0669 µM and 0.0589 µM and 0.24 µM | 0.0169 µM and 0.118 µM and 0.0299 µM | 0.299 µM and 1.36 µM | < 0.0131 µM and 0.026 µM | 0.107 µM and 0.124 µM and 0.551 µM | 0.452 µM and 0.468 µM and 2.16 µM | – | – | –
4 | O=S(=O)(Nc1nccs1)c1ccc([As](=O)(O)O)cc1 | > 100 | > 100 | > 100 µM | > 100 µM | > 100 | > 100 | > 100 | > 100 µM | > 100 | > 100 | – | – | – | – | – | – | – | – | – | –
5 | Clc1ccc(C2CC(c3cccc(Nc4ccncc4)c3)=NN2c2ccccc2)cc1 (stereo not drawn) | 3.17 | 2.79 | 3.62 µM | 2.79 µM | 3.24 | 3.18 | 3.34 | – | 3.84 | 3.12 | 1.64 µM | 1.69 µM | 1.47 µM | 1.77 µM | 1.71 µM | – | 1.58 µM | 1.37 | 1.67 | 1.98
6 | COC1=CC(=O)c2c(c(COC(C)=O)cn2C)C1=O | 1.04 | 0.88 | 0.124 µM | 0.551 µM | 0.516 | 8.18 | 0.193 | 0.395 µM | 0.373 | 0.727 | – | – | – | – | – | – | – | – | – | –
7 | CC(C(=O)NCCNC(=O)CCCC(=O)N(C)O)C(=O)NCCNC(=O)CCCC(=O)N(C)O | > 100 | > 100 | > 100 µM | > 100 µM | > 100 | > 100 | > 100 | > 100 µM | > 100 | > 100 | – | – | – | – | – | – | – | – | – | –
8 | CC(C)=CC1C(COC(=O)c2ccccc2Cl)C1(C)C (stereo not drawn) | > 100 | – | > 100 µM | > 100 µM | > 100 | > 100 | > 100 | 75.8 µM | > 100 | 92.6 | – | – | – | – | – | – | – | – | – | –
9 | CC1(CO)C(O)CCC2(C)C1C(O)CC1CC3CC12CCC3(O)CO (stereo not drawn) | > 225 | > 225 | > 225 µM | > 225 µM | > 225 | > 225 | > 225 | > 225 µM | > 225 | > 225 | – | – | – | – | – | – | – | – | – | –
10 | CCN(CC)CCCC(C)Nc1c2ccc(Cl)cc2nc2cc(Cl)ccc12 (stereo not drawn) | 9.68 | 22.7 | 8.28 µM | 11.5 µM | 15.8 | 40.8 | 12.5 | 13.4 µM | 29.2 | 29.8 | – | – | – | – | – | – | – | – | – | –
11 | O=[N+]([O-])c1ccc(Cc2nc3cc4ccccc4cc3[nH]2)cc1C(F)(F)F | 46.8 | 37.3 | > 100 µM | 40.4 µM | > 100 | 39 | 62.2 | 26 µM | 44.4 | > 100 | – | – | – | – | – | – | – | – | – | –
12 | CC(=O)Nc1c2sscc-2n(C)c1=O | 2.96 | 3.05 | 0.692 µM | 3.58 µM | 2.69 | 3.45 | 1.83 | 3.3 µM | 3.36 | 3.68 | – | – | – | – | – | – | – | – | – | –
13 | CNCCCn1c2c(c3ccc(Cl)cc3c1=O)C(=O)c1cc(OC)cnc1-2 | 2.93 | 1.78 | 2.45 µM | 2.64 µM | 3.15 | 2.26 | 1.98 | 2.78 µM | 33.4 | – | 1.27 µM | 1.08 µM | 1.08 µM | 1.62 µM | 0.614 µM | 1.41 µM | – | 0.263 | 0.0762 | 13.2
14 | CSC1=C(SC)C(=O)c2cn(C)c(=O)cc2C1=O | 3.74 | 22.5 | 13.1 µM | 3.13 µM | 6.69 | 31.1 | 2.58 | 3.54 µM | 17.1 | 33.6 | – | – | – | – | – | – | – | – | – | –
15 | CC(C)C(=O)Nc1ccc(-c2nc(-c3cccc(OCCN4CCOCC4)c3)c(-c3ccnc(Br)c3)[nH]2)cc1 | > 100 | 4.28 | – | 7.23 µM | 5.02 | > 100 | 8.59 | > 100 µM | 5.54 | > 100 | 4.46 µM | – | 2.36 µM | 1.98 µM | 3.46 µM | 4.24 µM | 4.01 µM | 0.647 | 2.87 | 2.21
